# Test results published in paper PMC5321639, “Design and pharmacodynamics of recombinant NZ2114 histidine mutants with improved activity against methicillin-resistant Staphylococcus aureus” (AMB Express, 2017).
# Where a SMILES comes first, the peptide text is derived from it. Bridges are numbered along the chain shown (N, C = ends).
# Experiments:
# [1] = system: S. aureus ATCC43300; test: microbe, parasite or virus in culture; format: cell-based, Staphylococcus aureus; conditions: for MICc (MIC of the most effective combination): checkerboard; for FIC: MICc/MICa
# How it was run: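 Checkerboard broth microdilution against S. aureus ATCC43300: peptides H1–H3 combined with vancomycin, ampicillin, rifampicin or ciprofloxacin, each twofold-diluted from 1/16 to 8× MIC. FICI = sum of each agent's MIC in combination over its MIC alone. FICI ≤0.5 synergy, >0.5–1 additive, >1–4 indifferent, >4 antagonism.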
# [2] = system: S. aureus ATCC43300 (MRSA); test: Time-kill curve assay; format: cell-based, Staphylococcus aureus; conditions: for time for bacterial counts to decrease to 2 log10 CFU/ml (a 99.9% reduction): start 1 × 10^5 CFU/ml, 37 °C, triplicate
# Experimental: Bacterial culture (S. aureus ATCC43300) was diluted to 1 × 10^5 CFU/ml and H1, H2, and H3 were added. […] The mixture was cultivated at 250 rpm, 37 °C. The 100-µl samples were taken from each flask at 0, 2, 4, 6, 8, 12 and 24 h of incubation, and serial dilutions of samples were plated to count visible colonies. Vancomycin was tested in the same way as a positive control and the culture without antimicrobial agent as a negative control (Xiong et al. [2011]). All experiments were performed in triplicate.
# [3] = system: S. enteritidis CMCC50336; test: MIC assay; format: cell-based, Salmonella enteritidis; conditions: MHB, 1 × 10^5 CFU/ml, 37 °C, 18–24 h, triplicate
# Experimental: The peptide solutions were diluted twofold with the range of final concentrations were 0.015–32 µg/ml (0.003–7.273 µM) for purified H1, H2, H3, H6, and H8. The test strains were grown in MHB medium at 37 °C to an OD600 of 0.4 and diluted to 1 × 10^5 CFU/ml. The 10 µl peptide and 90 µl cell suspension were added into each well. All assays were performed in triplicate. The antimicrobial activity of NZ2114 and vancomycin were tested as positive controls. The plates were incubated at 37 °C for 18–24 h. MIC was defined as the lowest peptide concentration of ones at which there was no visible growth (Tian et al. [2009]).
# [4] = in combination with ciprofloxacin
structure (smiles),measurement,setting,value
"CC[C@H](C)[C@@H]1NC(=O)[C@H](CO)NC(=O)[C@H](CCCCN)NC(=O)[C@@H]2CSSC[C@@H](C(=O)N[C@@H](Cc3ccc(O)cc3)C(=O)O)NC(=O)[C@H](CCCCN)NC(=O)[C@@H]3CSSC[C@H](NC(=O)[C@H](CCCNC(=N)N)NC(=O)[C@H](CC(C)C)NC(=O)[C@H](CC(=O)O)NC(=O)[C@H](CC(=O)O)NC(=O)[C@H](CCC(=O)O)NC(=O)[C@H](CC(N)=O)NC(=O)[C@H](Cc4c[nH]c5ccccc45)NC(=O)[C@@H]4CCCN4C(=O)CNC(=O)[C@H](CC(N)=O)NC(=O)[C@@H](NC(=O)CNC(=O)[C@H](Cc4ccccc4)NC(=O)CN)CSSC[C@H](NC(=O)[C@H](Cc4ccc(O)cc4)NC(=O)CNC(=O)CNC(=O)[C@H](CCCCN)NC(=O)[C@H](Cc4ccc(O)cc4)NC(=O)CNC(=O)[C@H](CCCCN)NC1=O)C(=O)N[C@@H](C)C(=O)N[C@@H](CCCCN)C(=O)NCC(=O)NCC(=O)N[C@@H](Cc1ccccc1)C(=O)N[C@@H](C(C)C)C(=O)N3)C(=O)N[C@@H](CCCNC(=N)N)C(=O)N[C@@H](CC(N)=O)C(=O)N[C@@H](Cc1c[nH]cn1)C(=O)N2 [H2] (H-GFGCNGPWNEDDLRCRNHCKSIKGYKGGYCAKGGFVCKCY-OH; disulfide 4-30, 15-37, 19-39 (inferred); N-terminus and C-terminus assumed)",MICc (MIC of the most effective combination),[1]; in combination with ampicillin,0.113 µM
same,MICc (MIC of the most effective combination),[1]; [4],0.227 µM
same,MICc (MIC of the most effective combination),[1]; in combination with rifampicin,0.056 µM
same,MICc (MIC of the most effective combination),[1]; in combination with vancomycin,0.113 µM
same,MIC,"[1]; drug alone, read-out: MICa (MIC of drug alone)",0.113 µM
same,FIC,[1]; in combination with ampicillin,1
same,FIC,[1]; [4],2
same,FIC,[1]; in combination with rifampicin,0.5
same,FIC,[1]; in combination with vancomycin,1
same,time for bacterial counts to decrease to 2 log10 CFU/ml (a 99.9% reduction),[2]; 1× MIC,1.5 h
same,regrowth of pathogens up to 24 h,"[2]; 1×, 2× and 4× MIC, maintained to 24 h",without regrowth
same,time for bacterial counts to decrease to 2 log10 CFU/ml (a 99.9% reduction),[2]; 2× MIC,1 h
same,time for bacterial counts to decrease to 2 log10 CFU/ml (a 99.9% reduction),[2]; 4× MIC,0.5 h
same,MIC,[3],>7.273 µM
